Assay results from US10709714B2 (CL BioSciences LLC, priority 2013, dated 2020).
Entries after “also recorded” stand apart in the source; their conditions may differ. Marks after values point to notes of the source that are not given here.

What was measured:
ovariectomized Mastomys [1] = assay: Bone strength (Instron), Model 3 Mastomys OVX; assay type: in vivo
Procedure: Finally, bone strength was examined in Mastomys using an Instron device. Femurs were loaded to failure in four-point bending. Tests were conducted with a deflection rate of 0.05 mm/sec using a servohydraulic testing machine (Instron model 8874; Instron Corp., Norwood, Mass., USA). […] Measurements of bone strength using the Instron device confirmed the utility of the gastrin-antagonist in reversing the OVX-mediated bone phenotype.

ovariectomized Mastomys [2] = assay: Bone histomorphometry, Model 3 Mastomys OVX; assay type: in vivo; settings: GA single s.c., 8 weeks
From the text: Patterns of bone mineralization (BM: decreased), resorption cavities (RC: increased) and osteoclasts (stained multinuclear cells (two arrows): increased) were affected by OVX. These effects were reversed by drug treatment.
The gastrin-antagonist treatment reversed these phenomena (FIG. 55).

[3] = test system: calvarial osteoblasts, hFOB, BMMSCs; assay: Gene expression in bone-derived cells (ALKP, M-CSF, RANKL); assay type: cell-based, mouse, human; settings: YF476 1 nM, preincubation
Procedure: This was reversed by the selective CCK2 receptor antagonist, YF476 (1 nM).

ovariectomized Mastomys [4] = assay: Circulating blood markers, Model 3 Mastomys OVX; assay type: in vivo
Procedure: CON=control animals, OVX=ovariectomized animals, OVX+GA=gastrin antagonist treated ovariectomized animals. Mean±SEM. *p<0.05 vs. CON, **p<0.05 vs. OVX alone.
Circulating bone biomarkers were also altered by OVX. Specifically, PINP was increased (0.16±0.03 ng/ml vs. 0.13±0.01, p<0.05) as was CTx-1 (0.24±0.17 ng/ml vs. 0.03±0.03, p<0.05) while osteocalcin was elevated (1.6±1.1 ng/ml vs. 0.4±0.16, p<0.05). Treatment with the antagonist attenuated each of these three ovariectomy-mediated alterations.

ovariectomized CD rats = assay: Circulating blood markers, Model 2 rat OVX; assay type: in vivo
Procedure: Ovariectomy increased PINP and osteocalcin. […] CON=control animals, OVX=ovariectomized animals, OVX+GA=gastrin antagonist treated ovariectomized animals. Mean±SEM. *p<0.05 vs. CON, **p<0.05 vs. OVX alone.
Circulating bone biomarkers were also altered by OVX. Specifically, both PINP (0.57±0.18 ng/ml vs. 0.35±0.06, p<0.05) and osteocalcin was elevated (1.35±0.9 ng/ml vs. 0.43±0.07, p<0.05). Treatment with the antagonist attenuated each of these ovariectomy-mediated alterations.

ovariectomized Mastomys [5] = assay: MicroCT of trabecular and cortical bone, Model 3 Mastomys OVX; assay type: in vivo
[6] = test system: calvarial osteoblasts, hFOB, BMMSCs; assay: Bone mineralization of bone-derived cells (fluorescent binding to hydroxyapatite); assay type: cell-based, mouse, human; settings: pre-incubation
Procedure: The binding of fluorescent Osteomalge to the hydroxyapatite portion of mineralized nodules was measured.

ovariectomized CD-1 mice = assay: MicroCT of trabecular and cortical bone, Model 1 mouse OVX; assay type: in vivo
[7] = OVX Mastomys + loxitidine, GA 10 ug/animal single s.c., 8 weeks
[8] = OVX Mastomys, GA-treated vs control
[9] = OVX Mastomys + loxitidine, GA 10 ug/animal single s.c., 8 weeks, listed as GA
[10] = OVX Mastomys + loxitidine, GA 10 ug/animal single s.c., 8 weeks, listed as antagonist
[11] = OVX CD rats + omeprazole, GA 50 ug/animal single s.c., 8 weeks
[12] = OVX CD rats, GA-treated vs control
[13] = OVX Mastomys + loxitidine, GA 10 ug/animal single s.c., 8 weeks, cortical bone
[14] = OVX Mastomys + loxitidine, GA 10 ug/animal single s.c., 8 weeks, trabecular bone
[15] = OVX Mastomys + loxitidine, GA 10 ug/animal single s.c., 8 weeks, trabecular bone, listed as GA
[16] = OVX Mastomys + loxitidine, GA 10 ug/animal single s.c., 8 weeks, trabecular bone, listed as Gastrin antagonist
[17] = OVX Mastomys, GA-treated vs control, cortical bone
[18] = OVX Mastomys, GA-treated vs control, trabecular bone
[19] = OVX CD-1 mice + omeprazole, GA 15 ug/animal single s.c., 8 weeks, cortical bone
[20] = OVX CD-1 mice + omeprazole, GA 15 ug/animal single s.c., 8 weeks, trabecular bone
[21] = OVX CD-1 mice, GA-treated vs control, cortical bone
[22] = OVX CD-1 mice, GA-treated vs control, trabecular bone

`CNc1cccc(NC(=O)N[C@@H]2N=C(c3ccccn3)c3ccccc3N(CC(=O)C(C)(C)C)C2=O)c1` [YF476, netazepide] was tested, and the “Fracture Load” value (ovariectomized Mastomys [1]; [7]) was 42.1, the “Max Load” value (ovariectomized Mastomys [1]; [7]) was 42.2 and the Stiffness (ovariectomized Mastomys [1]; [7]) was 311. For the same compound, the “Total Work” value (ovariectomized Mastomys [1]; [7]) was 14.8, the “Yield (Stiffness)” value (ovariectomized Mastomys [1]; [7]) was 280 and the “% Change Fracture Load” value (ovariectomized Mastomys [1]; [8]) was −25%. For the same compound, the “% Change Max Load” value (ovariectomized Mastomys [1]; [8]) was −25%, the “% Change Stiffness” value (ovariectomized Mastomys [1]; [8]) was −6%** and the “% Change Total Work” value (ovariectomized Mastomys [1]; [8]) was 55%*^,**. The “% Change Yield (Stiffness)” value (ovariectomized Mastomys [1]; [8]) was −6%**, the “effect on OVX changes in bone mineralization, resorption cavities and TRAP-positive osteoclasts” value (ovariectomized Mastomys [2]) was “reversed” and the “effect on gastrin-inhibited gene expression” value [3] was “reversed and normalized”. For the same compound, the CTX-1 (ovariectomized Mastomys [4]; [7]) was 0.1 ng/mL, the “ESR (circulating estrogen)” value (ovariectomized Mastomys [4]; [7]) was 2.54 pg/mL and the Osteocalcin (ovariectomized Mastomys [4]; [7]) was 1.13 ng/mL. The PINP (ovariectomized Mastomys [4]; [7]) was 0.13 ng/mL, the “Gastrin (circulating)” value (ovariectomized Mastomys [4]; [9]) was 2703 pg/mL and the “PTH (circulating)” value (ovariectomized Mastomys [4]; [9]) was 151 pg/mL. The “Gastrin (circulating)” value (ovariectomized Mastomys [4]; [10]) was 2704 ± 430 pg/mL, the “PTH (circulating)” value (ovariectomized Mastomys [4]; [10]) was 150 ± 37 pg/mL and the “% Change CTX-1” value (ovariectomized Mastomys [4]; [8]) was “+230%”. For the same compound, the “% Change ESR” value (ovariectomized Mastomys [4]; [8]) was −70%*, the “% Change Gastrin” value (ovariectomized Mastomys [4]; [8]) was −27%** and the “% Change Osteocalcin” value (ovariectomized Mastomys [4]; [8]) was “+13%”. The “% Change PINP” value (ovariectomized Mastomys [4]; [8]) was 0%*^, **, the “% Change PTH” value (ovariectomized Mastomys [4]; [8]) was −48%*^, ** and the CTX1 (ovariectomized CD rats; [11]) was 0.42. For the same compound, the “ESR (circulating estrogen)” value (ovariectomized CD rats; [11]) was 2.1 pg/mL, the “Gastrin (circulating)” value (ovariectomized CD rats; [11]) was 2971 pg/mL and the Osteocalcin (ovariectomized CD rats; [11]) was 0.80 ng/mL. For the same compound, the PINP (ovariectomized CD rats; [11]) was 0.48 ng/mL, the “PTH (circulating)” value (ovariectomized CD rats; [11]) was 1562 and the “% Change CTX1” value (ovariectomized CD rats; [12]) was −49%. For the same compound, the “% Change ESR” value (ovariectomized CD rats; [12]) was −60%*, the “% Change Gastrin” value (ovariectomized CD rats; [12]) was “+183%*” and the “% Change Osteocalcin” value (ovariectomized CD rats; [12]) was “+81%**”. For the same compound, the “% Change PINP” value (ovariectomized CD rats; [12]) was “+41%”, the “% Change PTH” value (ovariectomized CD rats; [12]) was −15% and the BS (ovariectomized Mastomys [5]; [13]) was 14.21. For the same compound, the BV/TV (ovariectomized Mastomys [5]; [13]) was 0.953, the “Ct. Th” value (ovariectomized Mastomys [5]; [13]) was 0.288 and the “Dens (Apparent Density, cortical)” value (ovariectomized Mastomys [5]; [13]) was 1159. For the same compound, the pMOI (ovariectomized Mastomys [5]; [13]) was 1.10, the BS (ovariectomized Mastomys [5]; [14]) was 19.2 and the BV/TV (ovariectomized Mastomys [5]; [14]) was 0.175. For the same compound, the Conns-Dens (ovariectomized Mastomys [5]; [14]) was 124.1, the SMI (ovariectomized Mastomys [5]; [14]) was 0.74 and the “Tb. Sp” value (ovariectomized Mastomys [5]; [14]) was 0.457. The “Dens (Apparent Density, trabecular)” value (ovariectomized Mastomys [5]; [15]) was 187.1, the “Tb. N” value (ovariectomized Mastomys [5]; [15]) was 2.38 and the “Tb. Th” value (ovariectomized Mastomys [5]; [15]) was 0.086. The “Dens (Apparent Density, trabecular)” value (ovariectomized Mastomys [5]; [16]) was 187±66, the “Tb. N” value (ovariectomized Mastomys [5]; [16]) was 2.4±0.6 and the “Tb. Th” value (ovariectomized Mastomys [5]; [16]) was 0.08±0.01. The “% Change BS” value (ovariectomized Mastomys [5]; [17]) was −1%, the “% Change BV/TV” value (ovariectomized Mastomys [5]; [17]) was 0% and the “% Change Ct. Th” value (ovariectomized Mastomys [5]; [17]) was −1%. The “% Change Dens (Apparent Density, cortical)” value (ovariectomized Mastomys [5]; [17]) was −4%, the “% Change pMOI” value (ovariectomized Mastomys [5]; [17]) was −4% and the “% Change BS” value (ovariectomized Mastomys [5]; [18]) was “+4%**”. For the same compound, the “% Change BV/TV” value (ovariectomized Mastomys [5]; [18]) was “+27%**”, the “% Change Conns-Dens” value (ovariectomized Mastomys [5]; [18]) was “+28%” and the “% Change Dens (Apparent Density, trabecular)” value (ovariectomized Mastomys [5]; [18]) was “+19%**”. The “% Change SMI” value (ovariectomized Mastomys [5]; [18]) was 0%, the “% Change Tb. N” value (ovariectomized Mastomys [5]; [18]) was “+18%**” and the “% Change Tb. Sp” value (ovariectomized Mastomys [5]; [18]) was −20%**. For the same compound, the “% Change Tb. Th” value (ovariectomized Mastomys [5]; [18]) was “+25%*^; **”, the “effect on gastrin inhibition of mineralization” value [6] was “inhibited; also recorded: not reversed” and the BS (ovariectomized CD-1 mice; [19]) was 11.3. The BV/TV (ovariectomized CD-1 mice; [19]) was 0.93, the “Ct. Th” value (ovariectomized CD-1 mice; [19]) was 0.21 and the pMOI (ovariectomized CD-1 mice; [19]) was 0.35. The “Dens (Apparent Density, cortical)” value (ovariectomized CD-1 mice; OVX CD-1 mice + omeprazole, GA 15 ug/animal single s.c., 8 weeks, cortical bone, listed as GA) was 1025, the “Dens (Apparent Density, cortical)” value (ovariectomized CD-1 mice; OVX CD-1 mice + omeprazole, GA 15 ug/animal single s.c., 8 weeks, cortical bone, listed as Gastrin-antagonist) was 1025±37 and the BS (ovariectomized CD-1 mice; [20]) was 16.8. For the same compound, the BV/TV (ovariectomized CD-1 mice; [20]) was 0.123, the Conns-Dens (ovariectomized CD-1 mice; [20]) was 128.6 and the SMI (ovariectomized CD-1 mice; [20]) was 1.38. The “Tb. N” value (ovariectomized CD-1 mice; [20]) was 2.43, the “Tb. Sp” value (ovariectomized CD-1 mice; [20]) was 0.528 and the “Tb. Th” value (ovariectomized CD-1 mice; [20]) was 0.051. The “Dens (Apparent Density, trabecular)” value (ovariectomized CD-1 mice; OVX CD-1 mice + omeprazole, GA 15 ug/animal single s.c., 8 weeks, trabecular bone, listed as GA) was 70.7, the “Dens (Apparent Density, trabecular)” value (ovariectomized CD-1 mice; OVX CD-1 mice + omeprazole, GA 15 ug/animal single s.c., 8 weeks, trabecular bone, listed as Gastrin antagonist) was 70.7±19 and the “% Change BS” value (ovariectomized CD-1 mice; [21]) was −15%*. The “% Change BV/TV” value (ovariectomized CD-1 mice; [21]) was 2%*, the “% Change Ct. Th” value (ovariectomized CD-1 mice; [21]) was “+39%*^,**” and the “% Change Dens (Apparent Density, cortical)” value (ovariectomized CD-1 mice; [21]) was −11%*^,**. The “% Change pMOI” value (ovariectomized CD-1 mice; [21]) was −11%, the “% Change BS” value (ovariectomized CD-1 mice; [22]) was −32%*^, ** and the “% Change BV/TV” value (ovariectomized CD-1 mice; [22]) was −33%*^, **. The “% Change Conns-Dens” value (ovariectomized CD-1 mice; [22]) was −62%*^, **, the “% Change Dens (Apparent Density, trabecular)” value (ovariectomized CD-1 mice; [22]) was −60%*^, ** and the “% Change SMI” value (ovariectomized CD-1 mice; [22]) was “+20%**”. The “% Change Tb. N” value (ovariectomized CD-1 mice; [22]) was −30%*^, **, the “% Change Tb. Sp” value (ovariectomized CD-1 mice; [22]) was “+82%*” and the “% Change Tb. Th” value (ovariectomized CD-1 mice; [22]) was “+28%*”.
